Non-standard residues stand in square brackets, D forms with d. No end group written: not given here.
Tests used:
[1] = system: several mammalian cell types; details: energy-independent manner; Zhao et al. 2003; cited from earlier work
[2] = system: New Zealand white rabbits; assay: Rabbit model of acute myocardial ischemia and reperfusion (coronary occlusion), infarct size by histomorphometry; format: in vivo
Description: New Zealand white rabbits were used in this study. The rabbits were males and >10 weeks in age. Environmental controls in the animal rooms were set to maintain temperatures of 61° to 72° F. and relative humidity between 30% and 70%. Room temperature and humidity were recorded hourly, and monitored daily. There were approximately 10-15 air exchanges per hour in the animal rooms. Photoperiod was 12-hr light/12-hr dark (via fluorescent lighting) with exceptions as necessary to accommodate dosing and data collection. Routine daily observations were performed. Harlan Teklad, Certified Diet (2030C), rabbit diet was provided approximately 180 grams per day from arrival to the facility. In addition, fresh fruits and vegetables were given to the rabbit 3 times a week.
The peptide D-Arg-2′6′-Dmt-Lys-Phe-NH2 (sterile lyophilized powder) was used as the test article. Dosing solutions were formulated at no more than 1 mg/ml, and were delivered via continuous infusion (IV) at a constant rate (e.g., 50 μL/kg/min). Normal saline (0.9% NaCl) was used as a control.
The test/vehicle articles were given intravenously, under general anesthesia, in order to mimic the expected route of administration in the clinical setting of AMI and PTCA. Intravenous infusion was administered via a peripheral vein using a Kd Scientific infusion pump (Holliston, Mass. 01746) at a constant volume (e.g., 50 μL/kg/min).
The study followed a predetermined placebo and sham controlled design. In short, 10-20 healthy, acclimatized, male rabbits were assigned to one of three study arms (approximately 2-10 animals per group). Arm A (n=10, CTRL/PLAC) includes animals treated with vehicle (vehicle; VEH, IV); Arm B (n=10, treated) includes animals treated with peptide; Arm C (n=2, SHAM) includes sham-operated time-controls treated with vehicle (vehicle; VEH, IV) or peptide.
In all cases, treatments were started approximately 10 min after the onset of a 30 min ischemic insult (coronary occlusion) and continued for up to 3 h following reperfusion. In all cases, cardiovascular function was monitored both prior to and during ischemia, as well as for up to 180 min (3 h) post-reperfusion. The experiments were terminated 3 h post-reperfusion (end of study); irreversible myocardial injury (infarct size by histomorphometery) at this time-point was evaluated, and was the primary-end-point of the study.
General anesthesia was induced intramuscularly (IM) with a ketamine (˜35-50 mg/kg)/xylazine (˜5-10 mg/kg) mixture. A venous catheter was placed in a peripheral vein (e.g., ear) for the administration of anesthetics. In order to preserve autonomic function, anesthesia was maintained with continuous infusions of propofol (˜8-30 mg/kg/hour) and ketamine (˜1.2-2.4 mg/kg/hr). A cuffed tracheal tube was placed via a tracheotomy (ventral midline incision) and used to mechanically ventilate the lungs with a 95% O2/5% CO2 mixture via a volume-cycled animal ventilator (˜40 breaths/minute with a tidal volume of −12.5 ml/kg) in order to sustain PaCO2 values broadly within the physiological range.
Once a surgical plane of anesthesia was reached, either transthoracic or needle electrodes forming two standard ECG leads (e.g., lead II, aVF, V2) were placed. A cervical cut-down exposed a carotid artery, which was isolated, dissected free from the surrounding tissue and cannulated with a dual-sensor high-fidelity micromanometer catheter (Millar Instruments); the tip of this catheter was advanced into the left-ventricle (LV) retrogradely across the aortic valve, in order to simultaneously determine aortic (root, proximal transducer) and left-ventricular (distal transducer) pressures. The carotid cut-down also exposed the jugular vein, which was cannulated with a hollow injection catheter (for blood sampling). Finally, an additional venous catheter was placed in a peripheral vein (e.g., ear) for the administration of vehicle/test articles. […]

[3] = system: subjects with STEMI and hypertension; assay: EMBRACE STEMI trial, subjects with anterior STEMI undergoing PCI; hypertensive subgroup compared; format: in vivo, human
Description: The EMBRACE STEMI study is known in the art (see e.g., Chakrabarti et al., Am Heart J, 165(4):509-514 (2013), the content of which is incorporate by reference in its entirety). Briefly, the EMBRACE STEMI trial is a multicenter, randomized, double-blind, placebo-controlled study. The study design was approved by institutional and national regulatory bodies and ethical committees. Multiple safety reviews were performed by an independent Data and Safety Monitoring Board throughout the course of the trial. All subjects provided written informed consent prior to randomization.
Subjects aged 18 to 85 years with anterior STEMI undergoing first-time percutaneous coronary intervention (PCI) plus stenting with an anticipated time from ischemic symptoms to time of balloon inflation <4 hours, with >0.1 mV ST-segment elevation in at least 2 contiguous precordial leads were enrolled. Major exclusion criteria included a history of prior myocardial infarction (MI), previous heart failure (e.g., known left ventricle ejection fraction (LVEF)<30% prior to the qualifying infarct), and cardiogenic shock.
To assess efficacy in large MIs that had not sustained reperfusion injury, only subjects who met angiographic and post-PCI inclusion criteria were included in the primary analysis population (PAP) (FIG. 7): (1) the presence of a proximal/mid left anterior descending (LAD) occlusion with pre-PCI TIMI flow 0 or 1 and no visible evidence of significant coronary collateral flow; (2) dilation of only the LAD; (3) successful PCI of the LAD with post-PCI TIMI flow >2; and (4) no evidence of a second MI within 72 hours of the initial PCI which would confound the infarct size determination.
Subjects were randomized in a double blind 1:1 fashion to receive either D-Arg-2′,6′-Dmt-Lys-Phe-NH2 of at 0.05 mg/kg/hr or a control placebo by IV injection (Treatment group: n=58; Control group: n=60). D-Arg-2′,6′-Dmt-Lys-Phe-NH2 was administered >15 minutes, but <60 minutes prior to PCI and for 1 hour following reperfusion. Subjects underwent cardiac magnetic resonance imaging (MRI) at 4±1 days and again at 30±7 days post-PCI. Follow-up visits were conducted at discharge, at 30±7 days, 90±14 days, and 6±1.5 months post-PCI.
The primary end point of the study was infarct size, or the area under the curve (AUC) of creatine kinase-MB (CK-MB) enzyme over 72 hours following PCI with the values log transformed and adjusted for the percent of artery distal to the occlusion and duration of symptoms (two variables known to confound the estimation of infarct size).19-21 Secondary end points included the AUCO-72 of troponin I, peak cardiac enzymes, the ratio of the volume of infarcted myocardium (late contrast gadolinium enhancement) to the left ventricular (LV) mass on cardiac Mill at day 4±1, day 30±7, and the change (4) in ratios from day 4±1 to day 30±7, measures of myocardial structure and function (left ventricular ejection fraction (LVEF), left ventricular end systolic volume (LVESV), and left ventricular end diastolic volume (LVEDV)) at day 4±1, day 30±7, and the change (4) in these measures from day 4±1 to day 30±7, TIMI myocardial perfusion grade (TMPG), TIMI flow grade (TFG), corrected TIMI frame count post-PCI and complete ST-segment elevation resolution (>70%) by the Schroder criteria. Laboratory measures of congestive heart failure (CHF) (N-terminal pro-B type natriuretic […]), and renal function (serum creatinine, estimated glomerular filtration rate, cystatin C, and blood urea nitrogen) were also evaluated.
The incidence of the clinical composite endpoint of all-cause death, new-onset CHF beginning >24 hours post-PCI and within the duration of the index hospitalization, and CHF re-hospitalization was also determined through 30±7 days and 6±1.5 months post-PCI. Safety endpoints included treatment emergent adverse events (TEAE). The pharmacokinetic profile of D-Arg-2′6′-Dmt-Lys-Phe-NH2 was determined based on the drug serum concentration. […]

mu-opioid receptor = details: stated in the description, no data shown; cited from earlier work
[4] = 30 min ischemia, 180 min reperfusion, IV continuous infusion from 10 min of ischemia, n = 10, means with standard errors
[5] = peptide group versus placebo group, p < 0.05

2′,6′-Dmt-D-Arg-Phe-Lys-NH2
Penetration of the plasma membrane [1]: readily penetrates the plasma membrane

D-Arg-2′,6′-Dmt-Lys-Phe-NH2 [D-Arg-2′6′-Dmt-Lys-Phe-NH2]
Myocardial Area (%) IA/AR (infarcted area to area of risk) [2, 4]: 24.7 ± 4.7%
Myocardial Area (%) IA/LV (infarcted area to left ventricular area) [2, 4]: 16.2 ± 3.4%
Infarct size compared to the control ([2]; induced cardiac ischemia, FIGS. 4A-4E): decreased infarct size
IA/AR, % versus placebo [2, 5]: −32 ± 13%
IA/LV, % versus placebo [2, 5]: −24 ± 16%
Myocardial salvage with shorter treatment ([2]; treatment for less than 3 hours after reperfusion, i.e., 30 min, data not shown): comparable myocardial salvage
Proportion of complete or partial ST segment resolution ([3]; 24 hours post-PCI, hypertensive subjects, control 88.2%, p=0.05): 100%
Mean infarct volume on cardiac MRI ([3]; day 4±1, 0.05 mg/kg/hr IV, control 52.6±30.2, p=0.03): 35.8 ± 22.8 mL
Mean left ventricle (LV) mass ([3]; hypertensive subjects, 0.05 mg/kg/hr IV, control 162.2±52.4, p=0.08): 141.5±53.2 grams
New onset CHF during the first 8 hours post-PCI ([3]; hypertensive subjects, control 11 incidents): 5 incidents
New onset CHF <24 hours post-PCI ([3]; hypertensive subjects, control 15 incidents): 8 incidents
Myocardial edema on cardiac MRI ([3]; hypertensive subjects, control 60.9±20.5, p=0.053): 48.9±22.0
Mu-opioid receptor agonist activity (mu-opioid receptor): does not have mu-opioid receptor agonist activity

F[dR]FK-NH2
Mu-opioid receptor agonist activity (mu-opioid receptor): does not have mu-opioid receptor agonist activity

Tyr-D-Arg-Phe-Lys-NH2
Mu-opioid receptor agonist activity (mu-opioid receptor): has mu-opioid receptor agonist activity

Reference: US20160151444A1, “METHODS FOR THE PREVENTION OR TREATMENT OF VESSEL OCCLUSION INJURY” (Stealth Peptides International, Inc., priority 2009, published 2016)
